One block for each molecule: values may come before it.
What was measured:
ferroportin (Fpn) = biological target: T1, ferroportin (Fpn) (Mus musculus, UniProt Q9JHI9); test: Ferroportin Ubiquitination and Degradation (immunoprecipitation, Western blot); type: cell-based; set-up: key: + comparable to hepcidin; − no effect; +/− intermediate effect; conditions: J774 cells; visual inspection of Western blots; concentration per compound ca. 10-fold J774 IC50
T1 construct: host or cells: J774 mouse macrophage cell line, Fe(III)-NTA induced
T1 sequence (Q9JHI9 1-570): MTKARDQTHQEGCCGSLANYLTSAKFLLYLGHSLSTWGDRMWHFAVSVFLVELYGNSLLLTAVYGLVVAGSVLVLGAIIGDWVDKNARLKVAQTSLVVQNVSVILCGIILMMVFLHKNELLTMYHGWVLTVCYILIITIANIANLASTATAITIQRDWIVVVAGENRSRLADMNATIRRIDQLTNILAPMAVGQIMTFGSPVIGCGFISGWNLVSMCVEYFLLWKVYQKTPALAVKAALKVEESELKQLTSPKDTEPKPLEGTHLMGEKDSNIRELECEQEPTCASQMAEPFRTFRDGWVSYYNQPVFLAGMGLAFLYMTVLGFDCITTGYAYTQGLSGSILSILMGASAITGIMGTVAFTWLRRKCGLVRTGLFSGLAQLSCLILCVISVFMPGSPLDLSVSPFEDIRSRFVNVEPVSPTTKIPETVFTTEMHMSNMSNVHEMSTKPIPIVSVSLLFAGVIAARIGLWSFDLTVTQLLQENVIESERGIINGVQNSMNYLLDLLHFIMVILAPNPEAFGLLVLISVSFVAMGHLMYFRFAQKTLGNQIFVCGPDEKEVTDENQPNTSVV
Procedure: Exposure of cells expressing ferroportin (Fpn) to hepcidin is known to trigger ubiquitination aid subsequent internalization and degradation of Fpn (Qiao, 2012). The potential of Fpn inhibitors to induce Fpn ubiquitination and degradation was investigated with an immunoprecipitation assay using the J774 mouse macrophage cell line which expresses Fpn upon treatment with iron.
Cells were incubated with synthetic human hepcidin (Bachem, Cat. H-5926) or Fpn inhibitor compounds for 10 min or 120 min. Cells were washed and lysed witi ice-cold lysis buffer (Pierce, Life Technoligies, Cat. 87787) including 1× HALT protease inhibitor cocktail (Life technologies, Cat. 78429) and 10 mM iodoacetamide (Sigma, Cat. 16125) to stabilize ubiquitinated proteins. Immunoprecipitation was done using the Pierce Classic IP Kit (Life Technologies, Cat. 26146) following the manufacturer's protocol. Briefly, 2 mg protein in 1.25 ml IP lysis buffer was incubated by mixing for 1 h at 4° C. with control agarose beads to pre-clear the lysate and reduce nonspecific signal. Unbound lysate was then incubated overnight with 12 μg per reaction of the affinity purified anti-Fpn antibody F308 that was raised against a GST fusion protein of mouse Fpn amino acids 224308. Immune complexes were captured by pipetting 14 μl settled Pierce Protein A/G Plus Agarose beads (Life Technologies, Cat. 20423) per reaction and the slurry was incubated for 1.5 h at 4° C. with gentle end-over-end mixing. The beads were washed and immune complexes were eluted directly with 75 μl SDS NuPAGE LDS sample buffer (Life Technologies, Cat. NP0007) containing DTT (Life Technologies, Cat. NP0009). After immunoprecipitation samples were analyzed by Western blotting using a rabbit anti-mouse MTP1 antiserum (Alpha Diagnostic International, Cat. MTP11-A) and a mouse anti-mono- and polyubiquitinylated conjugates monoclonal antibody (Enzo Lifesciences, Cat. BML-PW8810) for detection of ferroportin and ubiquitin, respectively. Mouse monoclonal anti-rabbit IgG light chain (Abcam, Cat. ab99697) and anti-mouse IgG H&L (Abcam, Cat. ab6789) HRP conjugates were used as secondary antibodies.
A selection of eleven Fpn inhibitors were tested in this assay and compared to hepcidin.
J774 cells were incubated overnight with Fe(III)-NTA to induce expression of Fpn. […] Mock treated cells were harvested after 120 min (Control).

Hbb th3/+ mice = test: Improvement of anemia, ineffective erythropoiesis and iron overload in a mouse model of β-thalassemia intermedia; type: in vivo; conditions: for Correction of anemia at day 20-48 (hemoglobin, difference to vehicle control) / Decrease in 58Fe spleen iron content / Decrease in blood reticulocyte counts / Decrease in leukocyte counts / Decrease in serum erythropoietin / Increase in blood erythrocyte counts / Increase in hematocrit / Prevention of liver 58Fe loading: 27 days (127) or 46 days (40); for Decrease in serum iron: Hbb th3/+ mice, % change to vehicle control
Procedure: The efficacy of Fpn inhibitors was investigated using a mouse model of transfusion-independent β-thalassemia. Mice with heterozygous deletion of β1 and β2 globin genes (called Hbb th3/+ mice) develop transfusion-independent anemia, ineffective erythropoiesis, splenomegaly and secondary iron overload in spleen, liver and kidneys. […] Hbb th3/+ mice were dosed twice daily with either compound at 20 or 60 mg/kg or with methylcellulose (10 ml/kg, Sigma, Cat. 274429) as a vehicle. Between both doses mice had access to drinking water supplemented with 1 mM ^58Fe(II)-sulfate (Vifor Pharma, Batch No. ROR 3096) and 10 mM ascorbic acid (Sigma, Cat. 795437) for 6 h. […] Water without ^58Fe(II)-Sulfate and ascorbic acid was provided during the remaining 18 h. Dosing of Fpn inhibitors or vehicle followed by exposure to iron-containing water was repeated for 20 to 46 days in individual experiments.
Additional hematologic parameters were measured in terminal blood using automated blood cell analyzer.
The inefficient erythropoiesis of Hbb th3/+ mice causes excessive proliferation of erythroid precursors in spleen, leading to splenomegaly.
Elevated erythropoietin levels in Hbb th3/+ mice hduced overexpression of erythroferrone, an erythroid regulator hormone known to suppress hepcidin (Kautz L. et al, Nat. Genet., 2014). […] Erythroferrone is produced by erythrocyte precursors proliferating massively in spleens of Hbb th3/+ mice as a consequence of extramedullar erythropoiesis.
Increased iron demand due to inefficient erythropoiesis and chronically low hepcidin levels in patients with thalassemia causes organ iron loading and associated morbidities, such as hepatocellular carcinoma and heart failure (Rivella S. Haematologica, 2015). Hbb th3/+ mice absorb excessive amounts of iron as a consequence of inadequately low hepcidin levels relative to the high iron content in liver, spleen and kidney and increased ferroportin expression in duodenum (Gardenghi S., Blood, 2007).
Additionally, reactive oxygen species (ROS) were detected in bone marrow cells using a fluorescent indicator, CM-H2DCFDA (Thermo Fisher Scientific, Cat. C6827).

Fpn Degradation (120 min.) (ferroportin (Fpn)): +
Fpn Ubiquitination (10 min.) (ferroportin (Fpn)): +/−
Compound: O=C(NCc1ncccc1F)c1coc(CCNCc2nc3ccccc3[nH]2)n1 [Example 126]

Compound: O=C(NCc1ncccc1F)c1coc(CCNCCc2nc3ccccc3[nH]2)n1 [Example 127]
Decrease in RDW (Hbb th3/+ mice; 20 mg/kg twice daily, 27 days (127)): 19%
Correction of anemia at day 20-48 (hemoglobin, difference to vehicle control) (Hbb th3/+ mice; 20 mg/kg twice daily): 12 g/L
Decrease in 58Fe spleen iron content (Hbb th3/+ mice; 20 mg/kg twice daily): 43%
Decrease in blood reticulocyte counts (Hbb th3/+ mice; 20 mg/kg twice daily): 16%
Decrease in leukocyte counts (Hbb th3/+ mice; 20 mg/kg twice daily): 46%
Decrease in serum erythropoietin (Hbb th3/+ mice; 20 mg/kg twice daily): 32%
Increase in blood erythrocyte counts (Hbb th3/+ mice; 20 mg/kg twice daily): 0%
Increase in hematocrit (Hbb th3/+ mice; 20 mg/kg twice daily): 3%
Prevention of liver 58Fe loading (Hbb th3/+ mice; 20 mg/kg twice daily): 39%
Decrease in serum iron (Hbb th3/+ mice; 20 mg/kg): 68%
Decrease in RDW (Hbb th3/+ mice; 60 mg/kg twice daily, 27 days (127)): 25%
Correction of anemia at day 20-48 (hemoglobin, difference to vehicle control) (Hbb th3/+ mice; 60 mg/kg twice daily): 20 g/L
Decrease in 58Fe spleen iron content (Hbb th3/+ mice; 60 mg/kg twice daily): 68%
Decrease in blood reticulocyte counts (Hbb th3/+ mice; 60 mg/kg twice daily): 61%
Decrease in leukocyte counts (Hbb th3/+ mice; 60 mg/kg twice daily): 66%
Decrease in serum erythropoietin (Hbb th3/+ mice; 60 mg/kg twice daily): 33%
Increase in blood erythrocyte counts (Hbb th3/+ mice; 60 mg/kg twice daily): 36%
Increase in hematocrit (Hbb th3/+ mice; 60 mg/kg twice daily): 20%
Prevention of liver 58Fe loading (Hbb th3/+ mice; 60 mg/kg twice daily): 59%
Decrease in serum iron (Hbb th3/+ mice; 60 mg/kg): 81%
Decreased in ROS in bone marrow erythrocytes (Hbb th3/+ mice; second value of the cell (60 mg/kg) twice daily, 27 days (127)): NA/75%

Compound: CC[C@H](C)[C@@H]1NC(=O)[C@@H](NC(=O)[C@@H](NC(=O)[C@@H]2CCCN2C(=O)[C@H](Cc2ccccc2)NC(=O)[C@H](Cc2c[nH]cn2)NC(=O)[C@@H](NC(=O)[C@@H](N)CC(=O)O)[C@@H](C)O)[C@@H](C)CC)CSSC[C@@H](C(=O)N[C@@H](CCCCN)C(=O)N[C@H](C(=O)O)[C@@H](C)O)NC(=O)[C@@H]2CSSC[C@@H]3NC(=O)[C@@H]4CSSC[C@H](NC(=O)[C@H](Cc5ccccc5)NC1=O)C(=O)N[C@@H](CSSC[C@H](NC(=O)[C@H](CCCCN)NC(=O)[C@H](CO)NC(=O)[C@H](CCCNC(=N)N)NC(=O)[C@H](Cc1c[nH]cn1)NC3=O)C(=O)NCC(=O)N[C@@H](CCSC)C(=O)N2)C(=O)NCC(=O)N4 [hepcidin, reference compound]
Fpn Degradation (120 min.) (ferroportin (Fpn)): +
Fpn Ubiquitination (10 min.) (ferroportin (Fpn)): +
